In the NIST ThermoML archive (doi:10.1016/j.tca.2018.11.018):

Tests used:
[1] = xn = mol fraction of the nth substance listed; settings: 100 kPa, Liquid, x2 = 0; for viscosity: Falling or rolling sphere viscometry; for mass density: Vibrating tube method
[2] = Molar enthalpy of transition or fusion; settings: DSC
[3] = for Triple point temperature: Crystal 2, DSC

O [water] + CCCC[n+]1ccccc1.[Br-]
[1]
Settings	mass density [kg/m3]	viscosity [mPa·s]
298.15 K	–	0.89
303.15 K	–	0.797
308.15 K	–	0.719
313.15 K	–	0.653
318.15 K	990.1	0.596
323.15 K	987.9	0.547
328.15 K	985.6	0.504
333.15 K	983.2	0.466
338.15 K	980.3	0.433
343.15 K	978.1	0.404
348.15 K	974.8	0.378

CCCC[n+]1ccccc1.[Br-] [1-butylpyridinium bromide]
Settings	Molar enthalpy of transition or fusion [kcal/mol]	Normal melting temperature [°C]
[2], Crystal 1	4.71	–
[3], Crystal 1, DTA	–	103.68

O [water]
Settings	Normal melting temperature [°C]
[3], Crystal, visual observation	0.1

O [water] + CC[N+]1(C)CCCCC1.[Br-]
[1]
Settings	mass density [kg/m3]	viscosity [mPa·s]
298.15 K	–	0.89
303.15 K	–	0.797
308.15 K	–	0.719
313.15 K	–	0.653
318.15 K	990.1	0.596
323.15 K	987.9	0.547
328.15 K	985.6	0.504
333.15 K	983.2	0.466
338.15 K	980.3	0.433
343.15 K	978.1	0.404
348.15 K	974.8	0.378

CCCC[N+](CC)(CC)CC.[Br-] [butyltriethyl ammonium bromide]
Settings	Molar enthalpy of transition or fusion, Crystal 2 [kcal/mol]	Normal melting temperature, Crystal 1, DTA [°C]	Normal melting temperature, Crystal 1, visual observation [°C]
[2]	2.68	–	–
[3]	–	216.87	217.0

Settings	Triple point temperature [K]
[3]	444.65

CC[N+]1(C)CCCCC1.[Br-] [N-ethyl-N-methylpiperidinium bromide]
Settings	Molar enthalpy of transition or fusion [kcal/mol]	Normal melting temperature [°C]
[2], Crystal 1	3.94	–
[3], Crystal 1, DTA	–	109.24

O [water] + CCCC[N+]1(C)CCCCC1.[Br-]
[1]
Settings	mass density [kg/m3]	viscosity [mPa·s]
298.15 K	–	0.89
303.15 K	–	0.797
308.15 K	–	0.719
313.15 K	–	0.653
318.15 K	990.1	0.596
323.15 K	987.9	0.547
328.15 K	985.6	0.504
333.15 K	983.2	0.466
338.15 K	980.3	0.433
343.15 K	978.1	0.404
348.15 K	974.8	0.378

CCCC[N+]1(C)CCCCC1.[Br-] [N-butyl-N-methylpiperidinium bromide]
Settings	Molar enthalpy of transition or fusion [kcal/mol]	Normal melting temperature [°C]
[2], Crystal 2	0.0153	–
[3], Crystal 1, DTA	–	240.67

Settings	Triple point temperature [K]
[3]	339.53

O [water] + CCCC[N+](CC)(CC)CC.[Br-]
[1]
Settings	mass density [kg/m3]	viscosity [mPa·s]
298.15 K	–	0.89
303.15 K	–	0.797
308.15 K	–	0.719
313.15 K	–	0.653
318.15 K	990.1	0.596
323.15 K	987.9	0.547
328.15 K	985.6	0.504
333.15 K	983.2	0.466
338.15 K	980.3	0.433
343.15 K	978.1	0.404
348.15 K	974.8	0.378
